Assay: molar heat capacity at constant pressure
Conditions: 101.33 kPa, Crystal 2, Small sample (50 mg) DSC

O=[Si]=O [silicon dioxide]
Conditions	molar heat capacity at constant pressure [J/K/mol]
730 K	69.83
735 K	70
740 K	70.22
745 K	70.45
750 K	70.72
755 K	71
760 K	71.26
780.95 K	71.65
781.12 K	71.67
781.28 K	71.59
781.45 K	71.55
781.61 K	71.6
781.78 K	71.49
781.94 K	71.36
782.11 K	71.45
782.28 K	71.45
782.45 K	71.54
782.62 K	71.57
782.78 K	71.51
782.95 K	71.6
783.12 K	71.5
783.28 K	71.3
783.45 K	71.26
783.62 K	71.08
783.78 K	71.24
783.95 K	71.41
784.12 K	71.45
784.28 K	71.52
784.45 K	71.54
784.62 K	71.49
784.78 K	71.52
784.95 K	71.46
785.12 K	71.45
785.28 K	71.49
785.45 K	71.49
785.62 K	71.49
785.79 K	71.54
785.95 K	71.6
786.12 K	71.72
786.29 K	71.77
786.45 K	71.65
786.62 K	71.5
786.78 K	71.36
786.95 K	71.21
787.12 K	71.35
787.29 K	71.46
787.46 K	71.52
787.62 K	71.51
787.78 K	71.6
787.95 K	71.68
788.12 K	71.69
788.28 K	71.59
788.45 K	71.56
788.62 K	71.65
788.79 K	71.81
788.95 K	71.75
789.12 K	71.7
789.29 K	71.78
789.45 K	71.82
789.62 K	71.7
789.79 K	71.66
789.95 K	71.68
790.12 K	71.65
790.28 K	71.4
790.45 K	71.28
790.62 K	71.32
790.78 K	71.49
790.95 K	71.6
791.12 K	71.65
791.29 K	71.82
791.45 K	71.83
791.62 K	71.77
791.79 K	71.7
791.95 K	71.64
792.12 K	71.58
792.29 K	71.65
792.45 K	71.69
792.61 K	71.77
792.78 K	71.83
792.95 K	71.78
793.12 K	71.69
793.28 K	71.67
793.45 K	71.75
793.61 K	71.63
793.78 K	71.65
793.95 K	71.8
794.12 K	71.75
794.29 K	71.74
794.45 K	71.73

— the NIST ThermoML archive (doi:10.1016/j.jct.2018.01.019)
